Here are results for eight molecules from patent US20230372262A1, “COMPOSITION FOR TREATING VASCULAR DISEASE, COMPOSITION FOR REVENTING VASCULAR DISEASE, COMPOSITION FOR TREATING HYPERTENSION, AND COMPOSITION FOR PREVENTING HYPERTENSION” (KINKI UNIVERSITY, priority 2020, published 2023).

The test system of the first test is elastic lamina of thoracic aorta and abdominal aorta. Briefly: Rate of destruction of elastic lamina in aorta of mice given nicotine water and inhaled β-caryophyllene (Example 9). It counts as in vivo, ddy mice. As to conditions: as Table 10. The text has this:
After the test, thoracic aorta and abdominal aorta were obtained by dissection. Each harvested aorta was Elastica van Gieson (EVG)-stained to measure and evaluate the rate of destruction of elastic lamina.
With `C=C1CC/C=C(\C)CC[C@@H]2[C@@H]1CC2(C)C` [Example 9, β-caryophyllene], the “Evaluation (rate of destruction)” value is on record as “A (When the rate of destruction of the elastic lamina waveform was less than 30%, the sample was evaluated as having a state in which the vascular wall was not destroyed (evaluation A))”. For `CN1CCCC1c1cccnc1` (stereo not drawn) [Comparative Example 8, nicotine, reference compound], the “Evaluation (rate of destruction)” value is “B (When the rate of destruction of the elastic lamina waveform was 30% or more, the sample was evaluated as having a state in which the vascular wall was destroyed (evaluation B))”. As for `C=C1CC/C=C(\C)CC[C@@H]2[C@@H]1CC2(C)C` [Comparative Example 7, β-caryophyllene], the “Evaluation (rate of destruction)” value was “A (When the rate of destruction of the elastic lamina waveform was less than 30%, the sample was evaluated as having a state in which the vascular wall was not destroyed (evaluation A))”.

Staying with this test, now noted: mouse aorta; nicotine 0.5 mg/mL in drinking water and/or β-caryophyllene inhalation 1 hour per exposure day.
For the molecule `C=C1CC/C=C(\C)CC[C@@H]2[C@@H]1CC2(C)C` [Example 5, β-caryophyllene], the “Rate of destruction (%) of elastic lamina” value (“Rate … (%) of elastic lamina” for short) stood at 15%. For the molecule `C=C1CC/C=C(\C)CC[C@@H]2[C@@H]1CC2(C)C` [Example 9, β-caryophyllene], the “Rate … (%) of elastic lamina” value is 15%. Regarding `CN1CCCC1c1cccnc1` (stereo not drawn) [Comparative Example 8, nicotine, reference compound], the “Rate … (%) of elastic lamina” value was determined as 42%. In the case of `C=C1CC/C=C(\C)CC[C@@H]2[C@@H]1CC2(C)C` [Comparative Example 7, β-caryophyllene], the “Rate … (%) of elastic lamina” value was 11%.

A further test relates to rat abdominal aorta (elastic lamina). Briefly: Recovery of elastic fibra in cultured abdominal aorta after nicotine (Example 8). Particulars: as Table 9.
With `C=C1CC/C=C(\C)CC[C@@H]2[C@@H]1CC2(C)C` [Example 8, β-caryophyllene], the “Evaluation (rate of destruction)” value is on record as “A (A rate of destruction of 35% or less was given evaluation A)”.

Take `CN1CCCC1c1cccnc1` (single isomer, unassigned) [Comparative Example 5, nicotine]: the “Evaluation (rate of destruction)” value was “B (a rate of destruction of more than 35% was given B)”.

For `CN1CCCC1c1cccnc1` (single isomer, unassigned) [Comparative Example 4, nicotine], the “Evaluation (rate of destruction)” value is on record as “B (a rate of destruction of more than 35% was given B)”.

Still in this test, the particulars now being: rat abdominal aorta; nicotine 24 h, then nothing, 24 h nicotine-free medium, or 24 h β-caryophyllene 100 nM.
Consider `C=C1CC/C=C(\C)CC[C@@H]2[C@@H]1CC2(C)C` [Example 8, β-caryophyllene], for which the “Rate … (%) of elastic lamina” value worked out at 18%. `CN1CCCC1c1cccnc1` (single isomer, unassigned) [Comparative Example 5, nicotine]: the “Rate … (%) of elastic lamina” value was determined as 58%. On the same count and under the same terms, under `CN1CCCC1c1cccnc1` (single isomer, unassigned) [Comparative Example 4, nicotine] stands 54%.

Another test shares this test system. Briefly: Rate of destruction of elastic lamina in cultured abdominal aorta with nicotine, EVG staining (Examples 5 to 7). As to conditions: as Table 7 rate of destruction.
Experimental: Unnecessary surrounding tissues were removed from the harvested abdominal aorta, which was then dipped in a medium for aorta culture. […] These abdominal aorta specimens were cultured in a medium for aorta culture under conditions of 37° C. and 5% CO2 for 24 hours. […] Specifically, the aortic wall was stained by Elastica van Gieson (EVG) staining and immunohistochemical staining. The quantitative analysis of the histochemical stain was carried out using ImageJ software (National Institutes of Health, Bethesda, Maryland, USA). Since an elastic lamina waveform is EVG-stained, the destruction of the vascular wall was estimated from the ratio of its area. The rate of destruction of the wavy configuration of elastic lamina was calculated by dividing a destroyed region (indicated by flattening and fragmentation of elastic lamina) by the whole region of the elastic lamina.
Turning to `CN1CCCC1c1cccnc1` (stereo not drawn) [Comparative Example 2, nicotine, reference compound], the “Evaluation (rate of destruction)” value is listed as “B (When the rate of destruction of the elastic lamina waveform was 30% or more, the sample was evaluated as having a state in which the vascular wall was destroyed (evaluation B))”. As to `C=C1CC/C=C(\C)CC[C@@H]2[C@@H]1CC2(C)C` [Example 5, β-caryophyllene], the “Evaluation (rate of destruction)” value is on record as “A (When the rate of destruction of the elastic lamina waveform was less than 30%, the sample was evaluated as having a state in which the vascular wall was not destroyed (evaluation A))”.
